These results are taken from paper PMC10159843, “Babesia duncani multi-omics identifies virulence factors and drug targets” (Nature Microbiology, 2023).

Data set [1] concerns B. duncani. As to the kind of experiment: microbe, parasite or virus in culture. The class given is cell-based, Babesia duncani.
The test system of data set [2] is B. duncani. As to conditions: continuous in vitro culture in human erythrocytes; cited from earlier work.
In data set [3] the target is B. duncani DHFR-TS (Babesia duncani, UniProt A0AAD9UQZ8). The class given is biochemical.
Chain of B. duncani DHFR-TS (A0AAD9UQZ8 1-514): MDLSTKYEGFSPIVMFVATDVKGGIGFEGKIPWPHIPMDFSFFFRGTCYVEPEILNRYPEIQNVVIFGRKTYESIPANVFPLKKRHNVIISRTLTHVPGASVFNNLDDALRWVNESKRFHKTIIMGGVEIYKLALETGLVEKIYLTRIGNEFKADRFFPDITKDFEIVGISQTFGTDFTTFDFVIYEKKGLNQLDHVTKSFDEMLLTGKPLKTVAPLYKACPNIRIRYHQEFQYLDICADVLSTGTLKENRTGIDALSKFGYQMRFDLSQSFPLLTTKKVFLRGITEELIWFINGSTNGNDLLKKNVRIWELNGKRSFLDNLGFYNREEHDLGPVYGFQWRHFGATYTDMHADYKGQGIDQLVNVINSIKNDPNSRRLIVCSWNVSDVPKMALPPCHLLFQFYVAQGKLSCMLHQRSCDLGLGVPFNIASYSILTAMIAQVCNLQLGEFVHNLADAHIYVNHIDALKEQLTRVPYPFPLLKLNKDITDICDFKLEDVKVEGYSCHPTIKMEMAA
Data set [4] concerns the target B. microti DHFR-TS (Babesia microti, UniProt A0A1R4AAV1). The class given is biochemical.
Data set [5] can be described thus: MTT cytotoxicity on HEK293 cells. The class given is cell-based, human. As to conditions: human, HEK293 cells, read-out: HEK293 LC50. The procedure: (§1) HeLa, HepG2, HEK and HCT116 cell lines were obtained from the American Type Culture Collection and maintained in Dulbecco’s modified Eagle’s medium (Invitrogen 11995-065) containing 25 mM glucose, 1 mM sodium pyruvate and supplemented with 5 mM HEPES, 10% FBS and penicillin-streptomycin (50 U ml^−1 penicillin, 50 µg ml^−1 streptomycin). An estimated 20,000 cells per well were seeded in a 96-well tissue culture plate and allowed to adhere. After 24 h, cells were treated with either vehicle alone (0.1% dimethylsulfoxide) or vehicle containing different concentrations of the target drugs using a 2-fold serial dilution starting at 10 mM. Dimethylsulfoxide at 10% was used as a positive control. Cells were incubated at 37 °C for 72 h, after which each well was incubated with 0.5 mg ml^−1 of MTT reagent (Cayman Chemical, 10009591) for 4 h in the dark at 37 °C. Following addition of 100 µl dimethylsulfoxide to each well, absorbance was measured at optical density (OD)590 nm using Spectra max plate reader. From the obtained OD values, percent cell viability was calculated by normalizing to the mean of 10% dimethylsulfoxide wells (set as 100% toxicity) and the mean of the vehicle control wells (set as 0% toxicity). Dose-response curves were plotted using GraphPad Prism v9.1.2

Data set [6] can be described thus: MTT cytotoxicity on HepG2 cells. The class given is cell-based, human. To be noted: human, HepG2 cells, read-out: HepG2 LC50. The procedure: as §1
Data set [7] in a line: MTT cytotoxicity on HeLa cells. As to conditions: human, HeLa cells, read-out: HeLa LC50. The class given is cell-based, human. The procedure: as §1
A short description of data set [8]: MTT cytotoxicity on HCT116 cells. As to conditions: human, HCT116 cells, read-out: HCT LC50. The class given is cell-based, human. The procedure:
as §1

Data set [9] deals with HEK293. Description: MTT cytotoxicity on HEK293 cells. To be noted: 72 h, read-out: HEK293 LC50. The class given is cell-based, human. The procedure: as §1
Data set [10] has as its system HepG2. As to the kind of experiment: MTT cytotoxicity on HepG2 cells. The class given is cell-based, human. As to conditions: 72 h, read-out: HepG2 LC50. The procedure:
as §1

Data set [11] concerns BdDHFR-TS. As to the kind of experiment: Inhibition of DHFR enzymatic activity of recombinant BdDHFR-TS. The class given is biochemical, B. duncani. To be noted: 0.1 μM enzyme, 300 μM DHF, 300 μM NADPH. The procedure:
(§2) The IC50 was determined from a sigmoidal dose-response curve using GraphPad Prism v9.1.2. […]
(§3) denatured (2 X 20 min in 0.5N NaOH; 1.5 M NaCl) and neutralized (2 X 20 min in 0.5 M Tris-HCl, pH 7.5; 1.5 M NaCl). Southern blotting was done on nylon membrane, positively charged
(§4) (Cat. No. 1417240, Roche) using 10X SSC and followed by UV crosslinking of transferred DNA.
(§5) The membrane was hybridized overnight at 26 °C with the telomere probe and then washed twice for 5 min each in 2X SSC and for 20 min each in 0.5X SSC at 26°C. Bound probe was detected with disodium-2-chloro-5(4 methoxyspiro (1,2-dioxetane-3.2´-[5-chloro]tricycle[3.3.1.1.3.7] decan)-4-yl)-1-phenyl phosphate (CDP-StarTM, Cat. No.12041677001, Roche) according to the manufacturer’s instructions. The membrane was visualized using an Amersham ImageQuant 800 system (GE Healthcare Bio-Science AB, Uppsala, Sweden).
(§6) Cloning, Expression, and Purification of recombinant B. duncani and B. microti DHFR-TS […]
(§7) duncani (BdDHFR-TS) and B. microti (BmDHFR-TS) were cloned into pMAL-c4x by GenScript USA Inc. Both enzymes were expressed as fusion proteins with N’-terminal maltose-binding protein (MBP) tag. Constructs of pMAL-c4x-BdDHFR-TS and pMAL-c4x-BmDHFR-TS were transformed by heat shock into E. coli BL-21(DE3). E. coli BL-21(DE3) harboring pMAL-c4x-DHFR-TS was grown overnight in 2 ml LB ampicillin (100 µg/mL). […]

Data set [12] has as its system human cell lines. As to the kind of experiment: In vitro therapeutic index of antifolates against human cell lines. The class given is cell-based. As to conditions: human cell lines versus B. duncani IC50. The procedure: Drug efficacy against B. duncani in vitro was determined using the SYBR Green assay as previously described. Briefly, a culture of B. duncani-infected human erythrocytes at 0.1% parasitemia and 5% haematocrit was maintained for 60 h in vitro in a 96-well plate in the absence or presence of varying concentrations of the drug of interest at concentrations ranging between 0.6 nM and 10 µM. An equal volume of lysis buffer (0.008% saponin, 0.08% Triton X-100, 20 mM Tris-HCl (pH 7.5) and 5 mM EDTA) containing SYBR Green-I (0.01%) was added to each well and the plate incubated at 37 °C for 1 h in the dark. Fluorescence counts in each well were measured at 480 nm (excitation) and 540 nm (emission) using a BioTek Synergy Mx microplate reader and background fluorescence from control wells containing uninfected RBCs was subtracted. A dose-response curve representing the fluorescence counts against the logarithm of the drug concentration was fitted by nonlinear regression and used to determine the IC50 of each drug. Analysis was conducted using GraphPad Prism 9.2.1. For each drug, two independent experiments, each with biological triplicates, were conducted. Data are shown as mean ± s.d. […]

Data set [13] has as its system HeLa. As to the kind of experiment: MTT cytotoxicity on HeLa cells. The class given is cell-based, human. As to conditions: 72 h, read-out: HeLa LC50. The procedure:
as §1

Data set [14] has as its system HCT116. As to the kind of experiment: MTT cytotoxicity on HCT116 cells. As to conditions: 72 h, read-out: HCT LC50. The class given is cell-based, human. The procedure: as §1
In data set [15] the test system is BmDHFR-TS. As to the kind of experiment: Inhibition of DHFR enzymatic activity of recombinant BmDHFR-TS. The class given is biochemical, B. microti. As to conditions: 0.1 μM enzyme, 300 μM DHF, 300 μM NADPH. The procedure:
as §2, §3, §4, §5, §6, §7

Where two headings read alike, the source gives them in different places.

What is called IC50 is the concentration that gives 50% inhibition. Broadly, the kcat is the maximal rate divided by the concentration of active sites. By Km is commonly meant the substrate concentration at which the rate is half of its maximum.

Chain of B. microti DHFR-TS (A0A1R4AAV1 1-502): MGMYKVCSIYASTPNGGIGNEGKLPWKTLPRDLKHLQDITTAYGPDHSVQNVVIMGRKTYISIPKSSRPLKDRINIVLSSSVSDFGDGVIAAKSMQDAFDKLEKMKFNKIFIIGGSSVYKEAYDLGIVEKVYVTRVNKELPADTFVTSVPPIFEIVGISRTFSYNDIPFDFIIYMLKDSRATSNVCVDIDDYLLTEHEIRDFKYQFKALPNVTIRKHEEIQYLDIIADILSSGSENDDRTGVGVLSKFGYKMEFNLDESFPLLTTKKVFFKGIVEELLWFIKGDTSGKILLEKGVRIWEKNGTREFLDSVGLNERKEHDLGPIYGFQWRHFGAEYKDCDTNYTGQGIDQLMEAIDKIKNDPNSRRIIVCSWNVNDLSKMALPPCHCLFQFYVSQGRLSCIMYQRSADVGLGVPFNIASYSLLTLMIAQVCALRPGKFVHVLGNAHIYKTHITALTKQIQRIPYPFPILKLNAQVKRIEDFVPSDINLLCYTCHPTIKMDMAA

For `O=C1C(O)=C([C@H]2CC[C@H](c3ccc(Cl)cc3)CC2)C(=O)c2ccccc21` [Atovaquone], the IC50 in data set [1] (Babesia duncani, Erythrocyte, read-out: IC50 of atovaquone, parental isolate WA1) amounted to 0.072 µM. Also, the “susceptibility of B. duncani” value in data set [2] is “low susceptibility”.

As for `NC(=O)C1=CN([C@@H]2O[C@H](COP(=O)(O)OP(=O)(O)OC[C@H]3O[C@@H](n4cnc5c(N)ncnc54)[C@H](OP(=O)(O)O)[C@@H]3O)[C@@H](O)[C@H]2O)C=CC1` [NADPH], the Vmax was determined as 9.8 ± 2.1 μmol · min^-1 ×10^4 in data set [3] and 10.1 ± 1.6 μmol · min^-1 ×10^4 in [4]. Also, the results for the kcat in [3] and in [4] were 0.4 ± 0.1 s⁻¹ and 1.7 ± 0.3 s⁻¹, respectively. The Km was determined as 32.9 ± 1 µM in data set [3] (complementary ligand at 300 μM) and 27.3 ± 0.2 µM in [4] (complementary ligand at 300 μM).

Take `CCc1nc(N)nc(N)c1-c1ccc(Cl)cc1` [Pyrimethamine]: the CC50 at 72 h in data set [5] was 500 µM; in data set [6], 1690 µM; in data set [7], above 900 µM; in data set [8] it was above 30 µM. Also, the IC50 in data set [1] (Babesia duncani, Erythrocyte, 60 h, read-out: B. duncani IC50) turned out to be 0.94 ± 0.017 µM.

As to `CC1(C)N=C(N)N=C(N)N1OCCCOc1cc(Cl)c(Cl)cc1Cl` [WR-99210], the CC50 in data set [9] was 1000 µM; in data set [10], 1100 µM; in [13], above 900 µM; in [14] it was 1050 µM. For the same compound, the IC50 in data set [11] came out at 0.0039 µM; in [1] (read-out: B. duncani IC50), 0.00058 µM; in data set [15], 0.0068 µM. In data set [12], the “TI (therapeutic index)” value is reported as above 15K.

With `CC[C@H]1OC(=O)[C@H](C)[C@@H](O[C@H]2C[C@@](C)(OC)[C@@H](O)[C@H](C)O2)[C@H](C)[C@@H](O[C@@H]2O[C@H](C)C[C@H](N(C)C)[C@H]2O)[C@](C)(O)C[C@@H](C)CN(C)[C@H](C)[C@@H](O)[C@]1(C)O` [azithromycin], in data set [2], the “susceptibility of B. duncani” value is reported as “low susceptibility”.

Take `CCC[C@@H]1C[C@@H](C(=O)N[C@@H]([C@H]2O[C@H](SC)[C@H](O)[C@@H](O)[C@H]2O)[C@H](C)Cl)N(C)C1` [clindamycin]: in data set [2], the “susceptibility of B. duncani” value was “low susceptibility”.

For the compound `C=C[C@H]1C[N@@]2CC[C@H]1C[C@H]2[C@H](O)c1ccnc2ccc(OC)cc12` [quinine], the “susceptibility of B. duncani” value in data set [2] was “low susceptibility”.
